Columns and labels:
[1] = biological target: Rho kinase 1 (ROCK-I) (Homo sapiens, UniProt Q13464); assay: In vitro Rho kinase inhibitory activity assay (ADP-Glo), Rho kinase 1; type: biochemical; conditions: 10 μM ATP, 25° C., expressed as range of activity
In short: (§1)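 Kinase activity is measured as ADP production (ADP-Glo, luminescence) after 1 hour at 25 °C with 10 μM ATP and 2.5 μM Myelin Basic Protein, following 30 min enzyme–compound preincubation. Buffer is 40 mM Tris pH7.5, 20 mM MgCl2, 0.1 mg/ml BSA, 50 μM DTT.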

[2] = biological target: Rho kinase 2 (ROCK-II) (Homo sapiens, UniProt O75116); assay: In vitro Rho kinase inhibitory activity assay (ADP-Glo), Rho kinase 2; type: biochemical; conditions: 10 μM ATP, 25° C., expressed as range of activity
Chain of Rho kinase 2 (ROCK-II) (O75116 whole entry): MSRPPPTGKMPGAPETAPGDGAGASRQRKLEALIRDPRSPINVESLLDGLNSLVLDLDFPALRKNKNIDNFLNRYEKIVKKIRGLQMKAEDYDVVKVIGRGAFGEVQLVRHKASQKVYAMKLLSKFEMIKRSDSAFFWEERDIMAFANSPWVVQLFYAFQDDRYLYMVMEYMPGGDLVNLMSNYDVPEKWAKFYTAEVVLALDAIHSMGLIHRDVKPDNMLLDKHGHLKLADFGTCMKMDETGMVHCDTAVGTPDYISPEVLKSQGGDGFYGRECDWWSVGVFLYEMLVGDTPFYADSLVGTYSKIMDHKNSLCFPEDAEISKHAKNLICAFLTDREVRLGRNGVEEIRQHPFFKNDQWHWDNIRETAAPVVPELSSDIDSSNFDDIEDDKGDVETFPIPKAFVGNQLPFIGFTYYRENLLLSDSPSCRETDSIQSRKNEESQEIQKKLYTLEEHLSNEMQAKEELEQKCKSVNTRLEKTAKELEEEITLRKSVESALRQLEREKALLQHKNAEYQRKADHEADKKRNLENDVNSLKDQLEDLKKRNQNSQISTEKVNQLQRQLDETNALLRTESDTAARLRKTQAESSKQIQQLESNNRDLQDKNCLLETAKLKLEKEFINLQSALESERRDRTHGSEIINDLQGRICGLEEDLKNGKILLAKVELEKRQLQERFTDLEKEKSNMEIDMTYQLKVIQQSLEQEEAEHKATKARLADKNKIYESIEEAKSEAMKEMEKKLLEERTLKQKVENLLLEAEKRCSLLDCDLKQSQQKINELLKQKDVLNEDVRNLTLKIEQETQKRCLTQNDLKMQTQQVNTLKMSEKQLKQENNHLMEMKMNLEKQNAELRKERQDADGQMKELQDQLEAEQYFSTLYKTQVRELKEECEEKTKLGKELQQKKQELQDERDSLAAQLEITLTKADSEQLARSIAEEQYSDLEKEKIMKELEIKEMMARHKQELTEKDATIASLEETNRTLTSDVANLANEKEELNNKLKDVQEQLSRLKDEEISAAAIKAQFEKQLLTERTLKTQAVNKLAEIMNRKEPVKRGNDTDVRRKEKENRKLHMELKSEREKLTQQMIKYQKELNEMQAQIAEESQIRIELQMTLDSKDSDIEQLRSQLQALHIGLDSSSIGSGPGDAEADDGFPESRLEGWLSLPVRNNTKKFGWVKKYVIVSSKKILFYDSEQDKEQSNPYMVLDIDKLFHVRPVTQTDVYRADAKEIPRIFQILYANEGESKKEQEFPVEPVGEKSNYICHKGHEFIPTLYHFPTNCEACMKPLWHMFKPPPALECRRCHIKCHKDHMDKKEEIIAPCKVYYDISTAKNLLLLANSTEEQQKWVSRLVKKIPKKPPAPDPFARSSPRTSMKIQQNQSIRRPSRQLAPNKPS
In short: as §1

Chain of Rho kinase 1 (ROCK-I) (Q13464 whole entry): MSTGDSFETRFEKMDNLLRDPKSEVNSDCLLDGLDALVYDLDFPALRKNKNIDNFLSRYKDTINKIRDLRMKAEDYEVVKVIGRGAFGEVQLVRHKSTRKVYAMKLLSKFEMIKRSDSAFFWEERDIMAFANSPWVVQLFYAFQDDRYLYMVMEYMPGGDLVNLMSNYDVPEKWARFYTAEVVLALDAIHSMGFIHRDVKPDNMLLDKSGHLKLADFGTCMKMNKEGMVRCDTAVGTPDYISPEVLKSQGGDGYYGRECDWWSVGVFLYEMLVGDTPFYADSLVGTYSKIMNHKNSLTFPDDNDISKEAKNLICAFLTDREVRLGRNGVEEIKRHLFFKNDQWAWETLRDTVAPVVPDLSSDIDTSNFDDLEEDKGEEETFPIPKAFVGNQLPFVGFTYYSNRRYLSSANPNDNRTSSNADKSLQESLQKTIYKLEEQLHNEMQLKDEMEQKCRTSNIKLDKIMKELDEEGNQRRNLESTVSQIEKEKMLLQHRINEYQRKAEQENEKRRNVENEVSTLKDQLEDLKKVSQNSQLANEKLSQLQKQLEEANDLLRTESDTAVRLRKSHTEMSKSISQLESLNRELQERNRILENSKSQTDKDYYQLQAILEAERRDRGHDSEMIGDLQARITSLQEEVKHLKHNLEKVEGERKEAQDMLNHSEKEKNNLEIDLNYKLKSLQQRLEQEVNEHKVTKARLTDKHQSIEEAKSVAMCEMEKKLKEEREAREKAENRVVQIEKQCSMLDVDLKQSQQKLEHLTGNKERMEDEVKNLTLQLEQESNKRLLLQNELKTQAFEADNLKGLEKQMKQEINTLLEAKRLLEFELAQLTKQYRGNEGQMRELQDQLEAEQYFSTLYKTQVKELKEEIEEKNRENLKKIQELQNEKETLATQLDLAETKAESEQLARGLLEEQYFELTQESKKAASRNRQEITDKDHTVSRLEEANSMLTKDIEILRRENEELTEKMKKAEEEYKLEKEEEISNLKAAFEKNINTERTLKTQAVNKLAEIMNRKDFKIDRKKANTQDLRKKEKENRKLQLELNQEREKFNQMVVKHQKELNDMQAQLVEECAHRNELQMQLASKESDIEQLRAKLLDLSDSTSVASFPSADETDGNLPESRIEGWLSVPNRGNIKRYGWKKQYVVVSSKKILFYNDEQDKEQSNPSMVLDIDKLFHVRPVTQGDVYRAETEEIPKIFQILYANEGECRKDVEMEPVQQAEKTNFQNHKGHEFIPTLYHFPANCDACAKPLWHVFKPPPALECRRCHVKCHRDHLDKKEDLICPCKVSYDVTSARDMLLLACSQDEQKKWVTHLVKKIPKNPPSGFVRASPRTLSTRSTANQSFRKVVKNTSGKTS

Structure (SMILES)	Ki [1] [nM]	Ki [2] [nM]
Cc1c[nH]c2ncnc(Oc3ccc(C[C@H](N)C(=O)N4CCC(Oc5cccnc5)CC4)cc3F)c12 [Example 126, (S)-2-amino-3-(3-fluoro-4-((5-methyl-7H-pyrrolo[2,3-d]pyrimidin-4-yl)oxy)phenyl)-1-(4-(pyridin-3-yloxy)piperidin-1-yl)propan-1-one]	3 to 30	3 to 30
Cc1c[nH]c2ncnc(Oc3ccc(C[C@H](N)C(=O)N4CCC(S(=O)(=O)c5ccccc5)CC4)cc3F)c12 [Example 127, (S)-2-amino-3-(3-fluoro-4-((5-methyl-7H-pyrrolo[2,3-d]pyrimidin-4-yl)oxy)phenyl)-1-(4-(phenylsulfonyl)piperidin-1-yl)propan-1-one]	< 3	< 3
Cc1c[nH]c2ncnc(Oc3ccc(C[C@H](N)C(=O)NCCc4ccncc4)cc3F)c12 [Example 128, (S)-2-amino-3-(3-fluoro-4-((5-methyl-7H-pyrrolo[2,3-d]pyrimidin-4-yl)oxy)phenyl)-N-(2-(pyridin-4-yl)ethyl)propanamide]	< 3	< 3
Cc1c[nH]c2ncnc(Oc3ccc(C[C@H](N)C(=O)N4C[C@@H](C)N(C)[C@@H](C)C4)cc3F)c12 [Example 129, (S)-2-amino-3-(3-fluoro-4-((5-methyl-7H-pyrrolo[2,3-d]pyrimidin-4-yl)oxy)phenyl)-1-((3S,5R)-3,4,5-trimethylpiperazin-1-yl)propan-1-one]	< 3	< 3
N#Cc1c[nH]c2ncnc(Oc3ccc(C[C@H](N)C(=O)N4CCN(Cc5ccccc5)CC4)cc3F)c12 [Example 130, (S)-4-(4-(2-amino-3-(4-benzylpiperazin-1-yl)-3-oxopropyl)-2-fluorophenoxy)-7H-pyrrolo[2,3-d]pyrimidine-5-carbonitrile]	< 3	< 3
CN[C@@H](Cc1ccc(Oc2ccnc3[nH]ccc23)cc1)C(=O)NC1CCCCC1 [Example 131, (S)-3-(4-((1H-pyrrolo[2,3-b]pyridin-4-yl)oxy)phenyl)-N-cyclohexyl-2-(methylamino)propanamide]	3 to 30	< 3
Cc1c[nH]c2nccc(Oc3ccc(CC(N)C(=O)N4CCN(Cc5ccccc5)CC4)cc3F)c12 (stereo not shown) [Example 132, 2-amino-1-(4-benzylpiperazin-1-yl)-3-(3-fluoro-4-((3-methyl-1H-pyrrolo[2,3-b]pyridin-4-yl)oxy)phenyl)propan-1-one]	< 3	< 3
CC(=O)N1CCN(C(=O)C(N)Cc2ccc(Oc3ccnc4[nH]cc(C)c34)c(F)c2)CC1 (stereo not shown) [Example 133, 1-(4-acetylpiperazin-1-yl)-2-amino-3-(3-fluoro-4-((3-methyl-1H-pyrrolo[2,3-b]pyridin-4-yl)oxy)phenyl)propan-1-one]	< 3	< 3
Cc1c[nH]c2nccc(Oc3ccc(C[C@H](N)C(=O)N(C)C4CCCCC4)cc3)c12 [Example 134, (S)-2-amino-N-cyclohexyl-N-methyl-3-(4-((3-methyl-1H-pyrrolo[2,3-b]pyridin-4-yl)oxy)phenyl)propanamide]	< 3	< 3
Cc1c[nH]c2nccc(Oc3ccc(C[C@H](N)C(=O)NCc4ccccc4)cc3)c12 [Example 135, (S)-2-amino-N-benzyl-3-(4-((3-methyl-1H-pyrrolo[2,3-b]pyridin-4-yl)oxy)phenyl)propanamide]	< 3	< 3
Cc1c[nH]c2nccc(Oc3ccc(C[C@@H](N)C(=O)NCc4ccccc4)cc3)c12 [Example 136, (R)-2-amino-N-benzyl-3-(4-((3-methyl-1H-pyrrolo[2,3-b]pyridin-4-yl)oxy)phenyl)propanamide]	3 to 30	3 to 30
Cc1c[nH]c2nccc(Oc3ccc(C[C@H](N)C(=O)Nc4ccccc4)cc3)c12 [Example 137, (S)-2-amino-3-(4-((3-methyl-1H-pyrrolo[2,3-b]pyridin-4-yl)oxy)phenyl)-N-phenylpropanamide]	< 3	< 3
Cc1c[nH]c2nccc(Oc3ccc(C[C@@H](N)C(=O)Nc4ccccc4)cc3)c12 [Example 138, (R)-2-amino-3-(4-((3-methyl-1H-pyrrolo[2,3-b]pyridin-4-yl)oxy)phenyl)-N-phenylpropanamide]	3 to 30	3 to 30
Cc1c[nH]c2nccc(Oc3ccc(C[C@H](N)C(=O)NCC4CCCCC4)cc3)c12 [Example 139, (S)-2-amino-N-(cyclohexylmethyl)-3-(4-((3-methyl-1H-pyrrolo[2,3-b]pyridin-4-yl)oxy)phenyl)propanamide]	< 3	< 3

The next lines start with the values.

Ki [1] [nM]	Ki [2] [nM]	Structure (SMILES)
3 to 30	3 to 30	Cc1c[nH]c2nccc(Oc3ccc(C[C@@H](N)C(=O)NCC4CCCCC4)cc3)c12 [Example 140, (R)-2-amino-N-(cyclohexylmethyl)-3-(4-((3-methyl-1H-pyrrolo[2,3-b]pyridin-4-yl)oxy)phenyl)propanamide]
< 3	< 3	Cc1c[nH]c2nccc(Oc3ccc(C[C@H](N)C(=O)NC4CCCCC4)cc3)c12 [Example 141, (S)-2-amino-N-cyclohexyl-3-(4-((3-methyl-1H-pyrrolo[2,3-b]pyridin-4-yl)oxy)phenyl)propanamide]
3 to 30	3 to 30	Cc1c[nH]c2nccc(Oc3ccc(C[C@@H](N)C(=O)NC4CCCCC4)cc3)c12 [Example 142, (R)-2-amino-N-cyclohexyl-3-(4-((3-methyl-1H-pyrrolo[2,3-b]pyridin-4-yl)oxy)phenyl)propanamide]
> 30	> 30	CN(CC1CCCCC1)C(=O)[C@H](N)Cc1ccc(Oc2ccnc3[nH]ccc23)cc1 [Example 143, (R)-3-(4-((1H-pyrrolo[2,3-b]pyridin-4-yl)oxy)phenyl)-2-amino-N-(cyclohexylmethyl)-N-methylpropanamide]
> 30	> 30	CN(Cc1ccccc1)C(=O)[C@H](N)Cc1ccc(Oc2ccnc3[nH]ccc23)cc1 [Example 144, (R)-3-(4-((1H-pyrrolo[2,3-b]pyridin-4-yl)oxy)phenyl)-2-amino-N-benzyl-N-methylpropanamide]
< 3	< 3	Cc1c[nH]c2nccc(Oc3ccc(C[C@H](N)C(=O)Nc4ccccc4)cc3F)c12 [Example 145, (S)-2-amino-3-(3-fluoro-4-((3-methyl-1H-pyrrolo[2,3-b]pyridin-4-yl)oxy)phenyl)-N-phenylpropanamide]
< 3	< 3	N[C@@H](Cc1ccc(Oc2ccnc3[nH]ccc23)c(F)c1)C(=O)NC1CCCCC1 [Example 146, (S)-3-(4-((1H-pyrrolo[2,3-b]pyridin-4-yl)oxy)-3-fluorophenyl)-2-amino-N-cyclohexylpropanamide]
3 to 30	< 3	N[C@@H](Cc1ccc(Oc2ccnc3[nH]ccc23)c(F)c1)C(=O)Nc1ccccc1 [Example 147, (S)-3-(4-((1H-pyrrolo[2,3-b]pyridin-4-yl)oxy)-3-fluorophenyl)-2-amino-N-phenylpropanamide]
< 3	< 3	Cc1c[nH]c2nccc(Oc3ccc(C[C@@H](N)C(=O)NC4CCCCC4)cc3F)c12 [Example 148, (R)-2-amino-N-cyclohexyl-3-(3-fluoro-4-((3-methyl-1H-pyrrolo[2,3-b]pyridin-4-yl)oxy)phenyl)propanamide]

— US10501461B2, “Tyrosine amide derivatives as Rho-kinase inhibitors” (CHIESI FARMACEUTICI S.P.A., priority 2017, dated 2019)
